As a reminder, the logD is the decadic logarithm of the distribution of all forms, ionised or not, between an organic phase and buffer at a given pH. What is called AUC is the area under the concentration-time curve, a measure of exposure. What is called Cmax is the maximum level reached in the sampled fluid or tissue.

For data set [1] the following is noted: buffer, pH 7.4.
For data set [2] the following is noted: mouse, in vivo, po, 10 mg/kg, 8 h.
For data set [3] the following is noted: mouse, in vivo, po, 10 mg/kg, 24 h.
Data set [4] is described as follows: Drug metabolism in po dosed NMRI mouse plasma assessed as release of 3-methoxyaniline. The data set is classed as ADME, organism-based. Particulars: in vivo.
A short description of data set [5]: Drug metabolism in mouse plasma assessed as release of 3-methoxyaniline measured after 5 hrs. The data set is classed as ADME, cell-free.
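Throughout, for logD: logD at pH 7.4 derived from a chromatographic hydrophobicity index measured by reversed-phase HPLC.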

The compound `COc1cccc(NC(=O)c2nnn(Cc3ccc(CN4CCOCC4)cc3)c2N)c1F` registered a logD in data set [1] of 2.1.

Regarding `COc1cccc(NC(=O)c2nnn(Cc3cc(C)on3)c2N)c1`, the logD in data set [1] amounted to 2.

Compound `COc1cccc(NC(=O)c2nnn(C(C)c3ccc(C(C)(C)C)cc3)c2N)c1` (stereo not given) showed a logD in data set [1] of 3.9.

In data set [1], `COc1cccc(NC(=O)c2nnn(Cc3ccc(C4CC4)cc3)c2N)c1` gave a logD of 3.2.

With `COC1CCCC(NC(=O)c2nnn(Cc3ccc(CN4CCOCC4)cc3)c2N)C1` (stereo not given), the logD in data set [1] came out at 2.

As to `Cc1noc(C)c1-c1noc(-c2nnn(Cc3ccc(CN4CCOCC4)cc3)c2N)n1`, the logD in data set [1] came out at 2.1.

Turning to `COc1cccc(NC(=O)c2nnn(Cc3ccc(OC(F)(F)F)cc3)c2N)c1`, the pH-dependent lipophilicity (logD) in data set [1] was determined as 3.6. This compound gave an AUC in data set [2] of 2300 ng·min/mL. In data set [3], this compound had a Cmax of 13 ng/mL.

For `COc1cccc(NC(=O)c2nnn(Cc3ccc(CN4CCOCC4)cc3)c2N)c1`, the Drug metabolism result in data set [4] and in data set [5] was “Metabolite_Notdetected” throughout.

`COc1cccc(NC(=O)c2nnn(CC3CCNCC3)c2N)c1` came in with a pH-dependent lipophilicity (logD) in data set [1] of 0.6.

In data set [1], `Nc1c(C(=O)Nc2ccccc2)nnn1Cc1ccc(CN2CCOCC2)cc1` gave a logD of 2.

In data set [1], `COc1nnccc1-c1noc(-c2nnn(Cc3ccc(CN4CCOCC4)cc3)c2N)n1` had a logD of 1.

Regarding `COc1cccc(NC(=O)c2nnn(Cc3ccc([S+](C)[O-])cc3)c2N)c1` (stereo not given), in data set [1], the logD amounted to 1.3.

On to `COc1cc(NC(=O)c2nnn(Cc3ccc(CN4CCOCC4)cc3)c2N)ccc1F`, for which the logD in data set [1] is on record as 2.1.

In turn, `COc1cccc(NC(=O)c2nnn(Cc3ccc(C#N)cc3)c2N)c1` came in with a log distribution coefficient (logD) in data set [1] of 2.3.

In turn, `Nc1c(C(=O)NC23CC4CC(CC(C4)C2)C3)nnn1Cc1ccc(CN2CCOCC2)cc1` registered a logD in data set [1] of 2.

For the compound `Nc1c(-c2nc(-c3ccccc3)no2)nnn1Cc1ccc(CN2CCOCC2)cc1`, in data set [1], the logD is on record as 2.6.

In the case of `COc1cc(NC(=O)c2nnn(Cc3ccc(CN4CCOCC4)cc3)c2N)nc(OC)n1`, the logD in data set [1] was 2.1. In addition, in data set [2], the AUC was found to be 300000 ng·min/mL. The compound further had a Cmax in data set [3] of 1300 ng/mL.

In data set [1], `COc1cccc(NC(=O)c2nnn(Cc3ccccc3)c2N)c1` displayed a logD of 2.6.

`Cc1cccc(NC(=O)c2nnn(Cc3ccc(CN4CCOCC4)cc3)c2N)c1` had a logD in data set [1] of 2.

For `COc1cccc(NC(=O)c2nnn(CC3CCN(C(C)=O)CC3)c2N)c1`, the logD in data set [1] stood at 1.2.

Compound `COc1cccc(NC(=O)c2nnn(CC3CCN(C(=O)OC(C)(C)C)CC3)c2N)c1` had a logD in data set [1] of 2.9.

`COc1cccc(NC(=O)c2nnn(Cc3ccc(-n4cccn4)cc3)c2N)c1` came in with a logD in data set [1] of 2.4.

Turning to `COc1cc(NC(=O)c2nnn(Cc3ccc(CN4CCOCC4)cc3)c2N)cc(OC)c1`, the logD in data set [1] stood at 2.2. For the same compound, the AUC in data set [2] was 370000 ng·min/mL. The compound also yielded a Cmax in data set [3] of 1600 ng/mL.

The compound `COc1ccnc(NC(=O)c2nnn(Cc3ccc(CN4CCOCC4)cc3)c2N)c1` yielded a logD in data set [1] of 2.

For the compound `COc1cc(F)cc(NC(=O)c2nnn(Cc3ccc(CN4CCOCC4)cc3)c2N)c1`, the logD in data set [1] was 2.4.

Regarding `Nc1c(-c2nc(C3CCC(O)CC3)no2)nnn1Cc1ccc(CN2CCOCC2)cc1` (stereo not given), the logD in data set [1] was 0.9.

`COc1cnccc1-c1noc(-c2nnn(Cc3ccc(CN4CCOCC4)cc3)c2N)n1` yielded a logD in data set [1] of 1.1.

The compound `Nc1c(-c2nc(C3CCOCC3)no2)nnn1Cc1ccc(CN2CCOCC2)cc1` showed a logD in data set [1] of 1.3.

Turning to `COc1cccc(NC(=O)c2nnn(Cc3ccc(C(C)C)cc3)c2N)c1`, the logD in data set [1] is on record as 3.4. The exposure (AUC) in data set [2] amounted to 3200 ng·min/mL. In data set [3], the Cmax was 17 ng/mL.

In turn, `COc1ccccc1-c1noc(-c2nnn(Cc3ccc(CN4CCOCC4)cc3)c2N)n1` registered a logD in data set [1] of 2.1.

For `COc1cccc(N(C)C(=O)c2nnn(Cc3ccc(CN4CCOCC4)cc3)c2N)c1`, in data set [1], the logD was 2.

Compound `COc1ncccc1-c1noc(-c2nnn(Cc3ccc(CN4CCOCC4)cc3)c2N)n1` gave a logD in data set [1] of 1.7. Further, the AUC in data set [2] came out at 190000 ng·min/mL. Moreover, the Cmax in data set [3] stood at 1300 ng/mL.

In turn, `COc1cccnc1-c1noc(-c2nnn(Cc3ccc(CN4CCOCC4)cc3)c2N)n1` registered a logD in data set [1] of 1.

The compound `COc1cccc(NC(=O)c2nnn(Cc3ccncc3)c2N)c1` yielded a logD in data set [1] of 1.4.
